From ChEMBL document CHEMBL4765455, “Design, synthesis, and biological evaluations of novel 3-amino-4-ethynyl indazole derivatives as Bcr-Abl kinase inhibitors with potent cellular antileukemic activity” (Eur J Med Chem, 2020)
The source made the active and inactive calls. No cut-off for these calls is given here.

Legend:
K562 [1] = assay: Antiproliferative activity against human K562 cells assessed as cell growth inhibition incubated for 72 hrs by MTT assay; format: functional
Bcr/Abl fusion protein [2] = target: Bcr/Abl fusion protein (Homo sapiens, UniProt P00519); assay: Inhibition of wild type BCR-ABL (unknown origin) incubated for 40 mins in presence of [gamma33P]ATP by scintillation method; format: protein assay
[3] = Antiproliferative activity against human L132 cells assessed as cell growth inhibition incubated for 72 hrs by MTT assay; format: cell-based
Bcr/Abl fusion protein [4] = target: Bcr/Abl fusion protein (Homo sapiens, UniProt P00519, T315I); assay: Inhibition of BCR-ABL T315I mutant (unknown origin) incubated for 40 mins in presence of [gamma33P]ATP by scintillation method; format: protein assay
CCRF-CEM [5] = assay: Antiproliferative activity against human CCRF-CEM cells assessed as cell growth inhibition measured after 48 hrs by SRB assay; format: functional
MOLT-4 [6] = assay: Antiproliferative activity against human MOLT-4 cells assessed as cell growth inhibition at 10 uM measured after 48 hrs by SRB assay relative to control; format: functional; conditions: read-out: GI
K562 [7] = assay: Antiproliferative activity against human K562 cells assessed as cell growth inhibition measured after 48 hrs by SRB assay; format: functional
K562 [8] = assay: Antiproliferative activity against human K562 cells assessed as cell growth inhibition at 10 uM measured after 48 hrs by SRB assay relative to control; format: functional; conditions: read-out: GI
HL-60(TB) [9] = assay: Antiproliferative activity against human HL-60(TB) cells assessed as cell growth inhibition at 10 uM measured after 48 hrs by SRB assay relative to control; format: functional
HL-60(TB) [10] = assay: Antiproliferative activity against human HL-60(TB) cells assessed as cell growth inhibition measured after 48 hrs by SRB assay; format: functional
RPMI-8226 [11] = assay: Antiproliferative activity against human RPMI-8226 cells assessed as cell growth inhibition measured after 48 hrs by SRB assay; format: functional
MOLT-4 [12] = assay: Antiproliferative activity against human MOLT-4 cells assessed as cell growth inhibition measured after 48 hrs by SRB assay; format: functional
[13] = Selectivity index, ratio of GI50 for human HL60(TB) cells to GI50 for human K562 cells; format: functional
RPMI-8226 [14] = assay: Antiproliferative activity against human RPMI-8226 cells assessed as cell growth inhibition at 10 uM measured after 48 hrs by SRB assay relative to control; format: functional; conditions: read-out: GI
SR [15] = assay: Antiproliferative activity against human SR cells assessed as cell growth inhibition measured after 48 hrs by SRB assay; format: functional
CCRF-CEM [16] = assay: Antiproliferative activity against human CCRF-CEM cells assessed as cell growth inhibition at 10 uM measured after 48 hrs by SRB assay relative to control; format: functional; conditions: read-out: GI
SR [17] = assay: Antiproliferative activity against human SR cells assessed as cell growth inhibition at 10 uM measured after 48 hrs by SRB assay relative to control; format: functional; conditions: read-out: GI

| Compound | GI50 (K562 [1]) | IC50 (Bcr/Abl fusion protein [2]) | GI50 at 72 h [3] | IC50 (Bcr/Abl fusion protein [4]) | further results |
| --- | --- | --- | --- | --- | --- |
| Cc1cn(-c2cc(C(=O)Nc3cccc(C#Cc4cccc5[nH]nc(N)c45)c3)cc(C(F)(F)F)c2)cn1 | 70 nM | 15.4 nM | 10900 nM | 1440 nM |  |
| Nc1n[nH]c2cccc(C#Cc3cccc(C(=O)Nc4cccc(C(F)(F)F)c4)c3)c12 | 3470 nM |  | 15300 nM | 2260 nM |  |
| Cc1cn(-c2cc(NC(=O)c3cccc(C#Cc4cccc5[nH]nc(N)c45)c3)cc(C(F)(F)F)c2)cn1 | 150 nM | 25.8 nM | 12900 nM | 824 nM | GI50 (CCRF-CEM [5]): 4880 nM; inhibition of growth at 10 µM (MOLT-4 [6]): 79.3%; GI50 (K562 [7]): < 10 nM; inhibition of growth at 10 µM (K562 [8]): 96.8%; inhibition of growth at 10 µM (HL-60(TB) [9]; read-out: GI): 87.5%; GI50 (HL-60(TB) [10]): 3220 nM; GI50 (RPMI-8226 [11]): 4540 nM; GI50 (MOLT-4 [12]): 3840 nM; RatioGI50 [13]: 322; inhibition of growth at 10 µM (RPMI-8226 [14]): 86.2%; GI50 (SR [15]): 5060 nM; inhibition of growth at 10 µM (CCRF-CEM [16]): 85%; inhibition of growth at 10 µM (SR [17]): 71.7% |
| CN1CCN(c2ccc(C(=O)Nc3cccc(C#Cc4cccc5[nH]nc(N)c45)c3)cc2C(F)(F)F)CC1 | 1480 nM |  | > 10000 nM |  |  |
| Nc1n[nH]c2cccc(C#Cc3cccc(C(=O)Nc4ccc(Cl)c(C(F)(F)F)c4)c3)c12 | 3810 nM |  | > 100000 nM | 1420 nM |  |
| Nc1n[nH]c2cccc(C#Cc3cccc(NC(=O)c4cc(C(F)(F)F)cc(C(F)(F)F)c4)c3)c12 | > 10000 nM |  |  | > 20000 nM |  |
| Nc1n[nH]c2cccc(C#Cc3cccc(C(=O)Nc4cc(CN5CCOCC5)cc(C(F)(F)F)c4)c3)c12 | 830 nM | 571 nM | 16700 nM | 2510 nM |  |
| Cc1ccc(C(=O)Nc2cccc(C#Cc3cccc4[nH]nc(N)c34)c2)cc1C(F)(F)F | 2350 nM |  | > 100000 nM |  |  |
| Nc1n[nH]c2cccc(C#Cc3cccc(C(=O)Nc4cc(C(F)(F)F)cc(C(F)(F)F)c4)c3)c12 | 520 nM |  | > 100000 nM | 1480 nM |  |
| CN1CCN(Cc2cc(NC(=O)c3cccc(C#Cc4cccc5[nH]nc(N)c45)c3)cc(C(F)(F)F)c2)CC1 | 300 nM | 56.7 nM | > 100000 nM | 1630 nM |  |
| Nc1n[nH]c2cccc(C#Cc3cccc(NC(=O)c4cccc(C(F)(F)F)c4)c3)c12 | 1540 nM |  | > 100000 nM | 2550 nM |  |
| Cc1ccc(NC(=O)c2ccc(CN3CCN(C)CC3)cc2)cc1Nc1nccc(-c2cccnc2)n1 [IMATINIB] | 800 nM |  | > 10000 nM |  | inhibition of growth at 10 µM (MOLT-4 [6]): 18%; GI50 (K562 [7]): 20 nM; growth inhibition (GI) (HL-60(TB) [9]): inactive; inhibition of growth at 10 µM (RPMI-8226 [14]): 12.6%; inhibition of growth at 10 µM (CCRF-CEM [16]): 6.6%; inhibition of growth at 10 µM (SR [17]): 14.6% |
| Nc1n[nH]c2cccc(C#Cc3cccc(NC(=O)c4cc(F)cc(C(F)(F)F)c4)c3)c12 | 2140 nM |  | > 100000 nM | 5280 nM |  |
| Nc1n[nH]c2cccc(C#Cc3cccc(NC(=O)c4cc(N5CCOCC5)cc(C(F)(F)F)c4)c3)c12 | 2210 nM |  | > 100000 nM | 4840 nM |  |
| Nc1n[nH]c2cccc(C#Cc3cccc(C(=O)Nc4ccc(CN5CCOCC5)c(C(F)(F)F)c4)c3)c12 | 570 nM | 194 nM | > 100000 nM | 1610 nM |  |
